Article PMC8921294, “Inhibition of mitochondrial LonP1 protease by allosteric blockade of ATP binding and hydrolysis via CDDO and its derivatives” (The Journal of Biological Chemistry, 2022)

Assays:
LonP1 C637S = target: T1, LonP1 C637S (Homo sapiens, UniProt P36776, C637S); assay: Endpoint ATPase assay, LonP1 C637S; format: biochemical
T1 construct: hexa-histidine (N); made in house; host or cells: Rosetta 2 E. coli
T1 sequence (P36776 68-959 C637S): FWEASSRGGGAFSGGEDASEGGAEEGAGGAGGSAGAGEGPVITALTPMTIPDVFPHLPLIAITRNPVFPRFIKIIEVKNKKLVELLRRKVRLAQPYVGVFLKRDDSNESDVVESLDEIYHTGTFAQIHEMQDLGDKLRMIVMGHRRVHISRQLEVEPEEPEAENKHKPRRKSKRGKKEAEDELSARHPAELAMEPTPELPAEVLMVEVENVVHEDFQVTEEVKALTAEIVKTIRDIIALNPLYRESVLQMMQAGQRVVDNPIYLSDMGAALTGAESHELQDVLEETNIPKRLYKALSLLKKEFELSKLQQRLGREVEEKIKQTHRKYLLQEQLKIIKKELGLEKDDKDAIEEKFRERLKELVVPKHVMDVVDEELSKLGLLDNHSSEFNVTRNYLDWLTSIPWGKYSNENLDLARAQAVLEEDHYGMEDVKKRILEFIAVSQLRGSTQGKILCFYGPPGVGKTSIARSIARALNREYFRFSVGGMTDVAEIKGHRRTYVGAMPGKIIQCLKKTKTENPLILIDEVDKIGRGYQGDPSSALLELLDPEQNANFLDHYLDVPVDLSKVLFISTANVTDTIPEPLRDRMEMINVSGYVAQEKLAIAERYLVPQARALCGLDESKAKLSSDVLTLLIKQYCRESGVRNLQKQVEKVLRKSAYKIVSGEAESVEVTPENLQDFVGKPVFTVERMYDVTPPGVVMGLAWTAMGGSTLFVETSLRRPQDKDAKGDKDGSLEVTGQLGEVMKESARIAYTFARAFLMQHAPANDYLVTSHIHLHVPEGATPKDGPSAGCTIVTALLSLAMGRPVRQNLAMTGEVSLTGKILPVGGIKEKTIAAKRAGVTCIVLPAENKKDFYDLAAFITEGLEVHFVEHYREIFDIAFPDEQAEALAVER
Description: Human mitochondrial LonP1 and mutants lacking the predicted mitochondrial targeting sequence were fused to an N-terminal hexa-histidine affinity tag, expressed in Rosetta 2 E. Coli, and purified using a nickel agarose column as previously described ([72]) and protein concentration and buffer exchange carried out using Amicon Ultra centrifugal filtration. LonP1 mutant constructs were obtained from the PCR-based QuikChange Site-Directed Mutagenesis Kit.
ADP-Glo (Promega) assays were performed according to the manufacturer's protocols. Purified wild-type or mutant LonP1 (400 nM monomer), the 26S proteasome (3 nM), or no enzyme controls were preincubated in 96-well plates (60 min, 25 °C) with ten different concentrations of CDDO and its derivatives, TP-82, enoxolone (5 μM) or DMSO vehicle control in buffer (40 mM Tris-HCl (pH 7.5), 20 mM MgCl2, 0.1 mg/ml BSA and 5% DMSO). The 26S and 20S proteasome were also assayed at 0, 0.75, 1.5, 3, 6, and 12 nM in the absence of CDDO derivatives. […] Assay reagents were used to quench further ATPase activity and generate luminescence signals proportional to the concentration of ADP formed. Background (no enzyme control) luminescence values were subtracted, and resultant values were reported as a percentage of the no drug control (100%). […]

26S proteasome ATPase = system: T2, 26S proteasome ATPase; assay: Endpoint ATPase assay, purified 26S proteasome; format: biochemical, human; conditions: 26S proteasome 3 nM, Fig. 4A
T2 construct: purified from human embryonic kidney cells (HEK293); purchased Boston Biochem Inc.-R&D Systems E-365; host or cells: HEK293
Source text: CDDO and CDDO-Methyl (CDDO-Me) were purchased from Cayman Chemical, CDDO-Imidazole (CDDO-Im) was purchased from Tocris. CDDO-anhydride ([20]) and TP-82 ([71]) were synthesized as reported. Other inhibitors in this study were purchased commercially: MG262 (Boston Biochem), bortezomib (LC Labs) and enoxolone (Cayman Chemical). Antibodies recognizing the following antigens were employed in this study: LonP1 (Proteintech, cat. 15440-1-AP), p53 (Calbiochem, cat. 0P43, lot # D00086815), cleaved PARP (Asp214) (BD Biosciences, cat. 552596), procaspase-3 monoclonal antibody (Transduction Laboratories, cat. C31720), actin (Santa Cruz, cat. sc-1615, lot # F0408), heme oxygenase 1 (Santa Cruz, cat. sc-136960, lot # B1516), TFAM kindly provided by Daniel Bogenhagen (Stony Brook University). Human 26S and 20S proteasome purified from human embryonic kidney cells (HEK293) were purchased commercially (Boston Biochem Inc.-R&D Systems, cat. E-365, lot # 35730210 and cat. E-360, lot # 16918510, respectively).
ADP-Glo (Promega) assays were performed according to the manufacturer's protocols. […] Assay reagents were used to quench further ATPase activity and generate luminescence signals proportional to the concentration of ADP formed. Background (no enzyme control) luminescence values were subtracted, and resultant values were reported as a percentage of the no drug control (100%). […]

HeLa ρ^0 cells = assay: Cytotoxicity/apoptosis in HeLa ρ^0 cells (cleaved PARP, procaspase 3 immunoblot); format: cell-based, human; conditions: 7 h, Fig. 4D
Description: HeLa cells devoid of mitochondrial DNA (HeLa ρ^0) and LCL cells were generated as described previously ([50]). DMEM, RPMI, and fetal bovine serum were purchased from Sigma. All cells were grown with 5% CO2 at 37 °C. LCL cells were cultured in RPMI supplemented with 15% FBS. HeLa Rho 0 cells were cultured in high glucose DMEM (25 mM) (Sigma) supplemented with sodium pyruvate ([…]) and uridine ([…]). CDDO-Me was purchased from Cayman chemicals, and CDDO-AH was synthesized as described previously ([20]). HEK293 cells plated in 60 mm dishes at a confluency of 60 to 70% were transfected with Control or 3′UTR LonP1 siRNA using Lipofectamine 2000 (Invitrogen) and reduced serum OPTI MEM (Sigma) as described in the manufacturer’s protocol to knockdown LonP1, whereas adenoviral transduction was employed to overexpress LonP1. CDDO-Me and CDDO-anhydride were dissolved in DMSO and serially diluted in the respective complete medium and added to HeLa ρ^0 cells and were treated for 7 or 24 h.
Cells were harvested, centrifuged, and washed with PBS and proteins were extracted by adding the lysis buffer (50 mM Tris, [pH 7.5], 300 mM NaCl, and 0.5% Triton X-100) containing 2X Halt phosphatase and protease cocktail inhibitor (Thermo Scientific) for 20 min on ice. After centrifugation at 14,000 rpm for 15 min at 4 °C, the supernatant was collected and estimated for protein by Bradford’s method. […]

Fold increase in inhibition compared with WT (LonP1 C637S) | IC50 (LonP1 C637S; end-point ATPase assay, N = 1, read-out: CDDO IC50) [µM] | Inhibition of ATP hydrolysis by the 26S proteasome (26S proteasome ATPase) | Compound | Concentration up to which no change in procaspase 3 levels was observed (HeLa ρ^0 cells)
4.7 | 3 | failed to inhibit | CC1(C)CC[C@]2(C(=O)O)CC[C@]3(C)[C@H](C(=O)C=C4[C@@]5(C)C=C(C#N)C(=O)C(C)(C)[C@@H]5CC[C@]43C)[C@@H]2C1 [CDDO, 2-cyano-3,12-dioxooleana-1,9(11)-dien-28-oic acid] | –
– | – | – | CC1(C)CC[C@]2(C(=O)OC(=O)[C@]34CCC(C)(C)C[C@H]3[C@H]3C(=O)C=C5[C@@]6(C)C=C(C#N)C(=O)C(C)(C)[C@@H]6CC[C@@]5(C)[C@]3(C)CC4)CC[C@]3(C)[C@H](C(=O)C=C4[C@@]5(C)C=C(C#N)C(=O)C(C)(C)[C@@H]5CC[C@]43C)[C@@H]2C1 [CDDO-anhydride] | up to 5 μM
